# US4156725A (priority 1972, dated 1979)
# Experiments:
# Derm. dermatonomous = conditions: British Pat. No. 1303171 and application No. 36289/70; cited from earlier work
# Cl. perfringens = conditions: British Pat. No. 1303171 and application No. 36289/70; cited from earlier work
# [1] = biological target: hydroxymethyldihydropteridine pyrophosphokinase (HMPPS) (Escherichia coli, UniProt P26281); assay: Inhibition of the enzymes of dihydropteroate biosynthesis (ATP-γ-P32 transfer / dihydropteroate-C14 formation); format: biochemical; conditions: E. coli enzyme extract; tests of Example K; read-out: concentration giving 50% inhibition
# Protocol: The inhibiting activity against HMPPS of a selected compound of formula (I) can, for instance, be tested by monitoring the transfer of the terminal phosphate of adenosinetriphosphate ATP-γ-p^32 to `dihydropteridine`. […] Such inhibition may, for instance, be easily and simply carried out by incubating an extract of E. coli with pAb-7-C^14, ATP, Mg and `dihydropteridine`. The formation of the dihydropteroate-C^14 can be quantitatively assayed after separating the unreacted pAB substrate, for instance by chromatography. […] Preferably the value is 25 μM or less, such as in the range between 2 to 12 μM. Generally a value below 7 μM is desirable. […]
# (a) An assay for HMPPS was developed in which the transfer of the terminal phosphate of ATP-γ-P^32 to Pt could be monitored and correlated with the amount of inhibition of HMPPS by the compound under test. […]
# Tubes 1 to 9 containing the amounts of components shown in the Table, were filled up to 200 μl with distilled water, incubated for 60 minutes at 37° C. and then chilled on ice. […] The charcoal and the filter were then radioactively counted. […]
# (b) The activity of the test compound of formula (I) against `synthetase` was determined as follows, by monitoring the formation of dihydropteroate C^14. […]
# Sequence of hydroxymethyldihydropteridine pyrophosphokinase (HMPPS) (P26281 whole entry): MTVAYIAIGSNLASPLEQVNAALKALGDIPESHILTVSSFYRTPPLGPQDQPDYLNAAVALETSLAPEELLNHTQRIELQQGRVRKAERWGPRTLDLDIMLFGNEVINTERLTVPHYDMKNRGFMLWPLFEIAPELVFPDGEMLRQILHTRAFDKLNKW
Structure (SMILES),bacteriostatic activity (Derm. dermatonomous),bacteriostatic activity (Cl. perfringens),IC50 [1] [µM]
"CC1(C)Nc2nc(N)nc(O)c2N=C1CO [2-amino-4-hydroxy-6-hydroxymethyl-7,7-dimethyl-7,8-dihydropteridine]",particularly effective,particularly effective,
"CC1=Nc2c(O)nc(N)nc2NC1(C)C [2-amino-4-hydroxy-6-methyl-7,7-dimethyl-7,8-dihydropteridine]",particularly effective,particularly effective,
"CC1(C)Nc2nc(N)nc(O)c2N=C1COc1ccccc1 [A, 2-Amino-4-hydroxy-6-phenoxymethyl-7,7-dimethyl-7,8-dihydropteridine]",,,17
